In patent US20240325340A1, “ISOFORM SPECIFIC AGONISTS TARGETING AKT KINASE” (Thomas Jefferson University, priority 2021, published 2024):
Entries after “also recorded” stand apart in the source; their conditions may differ.

Tests used:
Akt2-LT WT = biological target: T1, Akt2-LT WT (Homo sapiens, UniProt P31751); test: Phosphorylation of heterologously expressed Akt2-LT WT in H9C2 myoblasts; format: cell-based; conditions: serum-free media, 2 hr
T1 construct: expressed in transfected cells; host or cells: H9C2 myoblasts
T1 sequence (P31751 whole entry): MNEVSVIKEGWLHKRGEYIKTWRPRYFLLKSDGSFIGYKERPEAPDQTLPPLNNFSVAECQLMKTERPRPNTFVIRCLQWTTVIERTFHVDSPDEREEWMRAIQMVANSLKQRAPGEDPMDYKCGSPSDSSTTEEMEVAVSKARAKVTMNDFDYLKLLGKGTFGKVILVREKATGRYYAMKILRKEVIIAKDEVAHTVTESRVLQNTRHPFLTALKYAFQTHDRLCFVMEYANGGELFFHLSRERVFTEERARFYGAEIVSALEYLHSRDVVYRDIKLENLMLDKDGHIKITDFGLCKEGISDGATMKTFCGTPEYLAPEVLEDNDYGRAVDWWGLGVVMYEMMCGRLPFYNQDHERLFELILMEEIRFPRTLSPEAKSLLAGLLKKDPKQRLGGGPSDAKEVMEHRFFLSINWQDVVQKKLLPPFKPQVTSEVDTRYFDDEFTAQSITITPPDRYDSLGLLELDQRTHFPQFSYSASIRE
Procedure: (§1) FIGS. 2A-2B: illustrate the finding that T625's position 6 analogues differentially activate Akt and induce cellular toxicity. FIG. 2A: To distinguish heterologous-expressed Akt from endogenous Akt, a 41 amino acid large tag containing the HA-epitope was fused with wild type Akt2 (Akt2-LT WT). H9C2 myoblasts over-expressing Akt2-LT WT were treated with insulin or indicated compounds in serum-free media for 2 hr. Phosphorylation of T309 and total Akt2 are shown. FIG. 2B: Cell images show A549 AT2 cell morphology after 24 hr of drug treatment.

A549 AT2 cell = A549 AT2 cell morphology after 24 hr of drug treatment; format: cell-based, human; conditions: A549 AT2 cells
Procedure: as §1

A549 cells = test: Cytotoxicity by release of lactate dehydrogenase (LDH) in A549 cells; format: cell-based, human; conditions: 40 μM, 24 hours, serum-free media
Procedure: Cytotoxicity was determined by the release of lactate dehydrogenase (LDH) into cell culture media. A549 cells were incubated with 40 μM of each compound for 24 hours in serum-free media (n=3 for each compound). FIG. 8B: A visual assessment of cell morphology after 24 hrs treatment with 40 μM of each compound in serum-free media. 100× images are shown.

Hacat cells [1] = test: Cellular toxicity / cell morphology in Hacat cells after 24 hrs; format: cell-based, human; conditions: 40 μM
Hacat cells [2] = test: Human keratinocyte migration (cell-free gap) assay; format: cell-based; conditions: 40 μM, 22 hr, serum-starved
Procedure: FIGS. 11A-11B illustrates the finding that Akt activators in human keratinocyte cell line induce VEGF secretion and enhanced cell migration. FIG. 11A: Human keratinocyte line, HaCat cells, was incubated with 20 μM of each Akt activators for 24 hours. Insulin (3.5 μg/ml) and IGF1 (100 ng/mL) treatment were used as positive control. […] HaCaT cells were plated into silicone insert molds with a […] defined cell-free gap (Ibidi) and serum-starved overnight. Then, the mold barrier was removed and cells were treated with 40 μM T620. After 22 hr, the gap spaces were imaged at 100×. Two images of control and four images of T620 treated gap spaces are shown.

Akt [3] = test: Mouse cardiac ischemia-reperfusion injury model, Akt activation in heart; format: in vivo; conditions: directly injected or intraperitoneally injected after ischemic-ligation
Procedure: FIG. 13A: A schematic of ischemic-reperfusion procedure indicating drug injection time and heart harvest time. FIG. 13B: Illustrates immunoblots of pS473, Akt phospho-substrate, pPRAS40 and GAPDH in the WES auto-western system. After ischemic-ligation, T625 (0.8 μg in 20 μl PBS) were directly injected at three spots of exposed ventricular wall. Injected insulin was used as a control. FIG. 13C: Illustrates immunoblots of pT308, total Akt (tAkt) and GAPDH and quantified pT308/tAkt ratio. After ischemic-ligation, T620 and T625 were directly injected or intraperitoneally injected.
(§2) A FlexiVent system (SCIREQ) was used to deliver Akt activator, T625, directly to mouse lung. This procedure closely mimics the clinical application of inhaled insulin. […] Akt activators were also administered in the setting of mouse cardiac ischemia-reperfusion injury model (FIGS. 13A-13C). T625 was directly injected into the left ventricular free wall at the time of ischemic ligation of exteriorized heart. Also, to mimic clinical use, (IP) Akt activators were intraperitoneally injected within 10 min after ischemia initiation. It was shown that both directly applied and intraperitoneally injected Akt activators activated Akt in the heart. Finally, a splinted murine excisional wound model that mimic human wound healing was used. […]

Akt [4] = test: Splinted murine excisional skin wound model, topical treatment; format: in vivo, mouse; conditions: 20 μL of 40 μM applied within the wound silicone circle, 20 min
Procedure: FIGS. 14A-14B illustrate the use of an Akt activator as topical treatment for healing mouse skin wound. […] 20 μL of indicated compounds were applied within the skin wound silicone circle for 20 min. Wound tissues were harvested and blotted with anti-Akt pS473 and GAPDH using the Proteinsimple WES system. Growth factor (GF) mixture (insulin, PDGF and IGF1 growth factor) or 40 μM T620 in corn oil or in PBS as vehicles. […] Images of WT mouse skin wound after vehicle (0.7% DMSO in PBS) or 40 μM T620 treatment at Day 3. Wound images and hematoxylin sections showing wound edge and wound bed are shown. Scale bar=400 μm.
as §2

cells = test: Cellular toxicity (cells not specified); format: cell-based

Compound: N#CC1=C(N)Oc2ccc([N+](=O)[O-])cc2C1C(C#N)C#N (centres unmarked) [T620, 2-(2-amino-3-cyano-6-nitro-4H-chromen-4-yl)propanedinitrile]
- Akt activation in cells (phosphorylation of T309 of Akt2-LT WT) (Akt2-LT WT): preserved Akt activation; also recorded: activate Akt
- cellular toxicity (cell morphology) (A549 AT2 cell): greatly reduced toxicity
- cellular toxicity (LDH release) (A549 cells): low toxicity; also recorded: failed to show significant cellular toxicity; also recorded: reduced cellular toxicity
- cellular toxicity (Hacat cells [1]): failed to show significant cellular toxicity
- keratinocyte migration (Hacat cells [2]): enhance human keratinocyte migration
- Akt activation in mouse heart during ischemia-reperfusion (Akt [3]): enhanced Akt activation in mouse heart
- Akt activation (pS473) within mouse skin wounds (Akt [4]): activated Akt within mouse skin wounds
- cellular toxicity (cells): reduced toxicity
